Patent US20050004126A1 (priority 2001, published 2005)
Where a name gives a salt, the structure may show the parent alone. Read-outs that look alike come from different tables or passages of the source.

Assays:
[1] = target: T1, MMP-1FL (full-length interstitial collagenase) (Homo sapiens, UniProt P03956); assay: Thiopeptolide hydrolysis assay, MMP-1; format: biochemical; conditions: read-out: MMP01 IC50
T1 sequence (P03956 100-469): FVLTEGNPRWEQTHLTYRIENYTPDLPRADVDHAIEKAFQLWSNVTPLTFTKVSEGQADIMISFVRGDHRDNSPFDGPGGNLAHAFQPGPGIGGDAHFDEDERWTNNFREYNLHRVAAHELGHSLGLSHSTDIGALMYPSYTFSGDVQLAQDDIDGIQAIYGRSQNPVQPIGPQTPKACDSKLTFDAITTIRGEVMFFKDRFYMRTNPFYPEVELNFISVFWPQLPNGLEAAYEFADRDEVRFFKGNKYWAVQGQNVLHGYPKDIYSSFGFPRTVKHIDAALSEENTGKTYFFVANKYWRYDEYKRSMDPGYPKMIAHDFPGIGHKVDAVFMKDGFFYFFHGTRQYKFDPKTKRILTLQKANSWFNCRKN
Description: (§1) They measure the amount by which a test compound reduces the hydrolysis of a thiopeptolide substrate caused by a matrix metalloproteinase enzyme.
Thiopeptolide substrates show virtually no decomposition or hydrolysis in the absence of a matrix metalloproteinase enzyme. A typical thiopeptolide substrate commonly utilized for assays is Ac-Pro-Leu-Gly-thioester-Leu-Leu-Gly-OEt. A 100 μL assay mixture will contain 50 mM of 2-morpholinoethane sulfonic acid monohydrate (MES, pH 6.0) 10 mM CaCl2, 100 μM thiopeptolide substrate, and 1 mM 5,5′-dithio-bis-(2-nitro-benzoic acid) (DTNB). […] The change in absorbance at 405 nm is monitored on a Thermo Max microplate reader (moleucular Devices, Menlo Park, Calif.) at room temperature (22° C.). […] Assays are carried out with and without matrix metalloproteinase inhibitor compounds, and the amount of hydrolysis is compared for a determination of inhibitory activity of the test compounds.

[2] = target: MMP-13CD (catalytic domain of collagenase 3) (Homo sapiens, UniProt P45452); assay: Thiopeptolide hydrolysis assay, MMP-13;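 also: inhibition of enzymatic thiopeptolide substrate cleavage (100 µM) in pH 6.0 MES buffer with CaCl2 and DTNB, comparing hydrolysis with versus without inhibitor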
[3] = target: MMP-3CD (catalytic domain of stromelysin) (Homo sapiens, UniProt P08254); assay: Thiopeptolide hydrolysis assay, MMP-3; format: biochemical; conditions: read-out: MMP03 IC50;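 also: inhibition of thiopeptolide substrate (100 µM) cleavage by the MMP-3 catalytic domain, detected with DTNB at pH 6.0 with CaCl2, hydrolysis compared against runs lacking inhibitor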
MMP-3CD (catalytic domain of stromelysin), sequence (P08254 100-272 limits assumed): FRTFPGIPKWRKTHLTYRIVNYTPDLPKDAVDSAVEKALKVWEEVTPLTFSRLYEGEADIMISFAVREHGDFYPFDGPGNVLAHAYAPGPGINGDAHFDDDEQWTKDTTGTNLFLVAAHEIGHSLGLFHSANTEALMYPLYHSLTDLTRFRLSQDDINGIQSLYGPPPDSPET
Description: as §1
Thiopeptolide substrates show virtually no decomposition or hydrolysis in the absence of a matrix metalloproteinase enzyme. A typical thiopeptolide substrate commonly utilized for assays is Ac-Pro-Leu-Gly-thioester-Leu-Leu-Gly-OEt. A 100 μL assay mixture will contain 50 mM of 2-morpholinoethane sulfonic acid monohydrate (MES, pH 6.0) 10 mM CaCl2, 100 μM thiopeptolide substrate, and 1 mM 5,5′-dithio-bis-(2-nitro-benzoic acid) (DTNB). […] Assays are carried out with and without matrix metalloproteinase inhibitor compounds, and the amount of hydrolysis is compared for a determination of inhibitory activity of the test compounds.

| IC50 ([1]; Table II) [µM] | IC50 ([2]; MMP13 IC50 (nM), Table II) [nM] | IC50 ([3]; Table II) [µM] | IC50 ([1]; Table 1b) [µM] | IC50 ([2]; MMP13 IC50 (μM), Table 1b) [nM] | IC50 ([3]; Table 1b) [µM] | SMILES |
| --- | --- | --- | --- | --- | --- | --- |
| > 100 | 915 | > 100 |  |  |  | O=C(O)CN(Cc1ccccc1)C(=O)c1cccc(C(=O)NCc2ccc3c(c2)OCO3)c1 |
| > 100 | 255 | > 100 |  |  |  | COc1ccc(C(=O)OCc2ccncc2)cc1C(=O)OCc1ccncc1 [4-Methoxy-isophthalic acid dipyridin-4-ylmethyl ester] |
| > 100 | 555 | 68 |  |  |  | COc1cccc(CNC(=O)c2cccc(C(=O)NCc3ccc(Cl)c(Cl)c3)c2)c1 |
| > 100 | 2350 | > 100 |  |  |  | O=C(NCc1ccc(F)cc1)c1cccc(C(=O)NCc2ccc(F)cc2)c1 [N,N′-Bis-(4-fluoro-benzyl)-isophthalamide] |
|  |  |  | > 30 | 293 | > 30 | O=C(NCc1ccccc1)c1cn2c(=O)n(Cc3ccc(Cl)c(Cl)c3)c(=O)cc2s1 |
| > 100 | 2330 | > 100 |  |  |  | O=C(OCc1ccc(F)cc1)c1cccc(C(=O)OCc2ccc(F)cc2)c1 [Isophthalic acid bis-(4-fluoro-benzyl) ester] |
| > 100 | 8200 | > 100 |  |  |  | CC(=O)c1ccc(C(=O)OCc2ccccc2)cc1C(=O)OCc1ccccc1 [4-Acetyl-isophthalic acid dibenzyl ester] |
|  |  |  | > 100 | 1.75 | 36 | COc1ccc(CNC(=O)c2cn3c(=O)n(Cc4ccc(C(=O)O)cc4)c(=O)c(C)c3s2)cc1 [sodium salt] |
| > 100 | 1500 | > 100 |  |  |  | O=C(NCc1cccnc1)c1cccc(C(=O)NCc2ccc3c(c2)OCO3)c1 |
| > 100 | 180 | > 100 |  |  |  | COc1cccc(CNC(=O)c2ccc(OC)c(C(=O)NCc3cccc(OC)c3)c2)c1 [4-Methoxy-N,N′-bis-(3-methoxy-benzyl)-isophthalamide] |
|  |  |  | > 100 | 84 | > 100 | COc1ccc(CNC(=O)c2cn3c(=O)n(Cc4ccc(Cl)c(Cl)c4)c(=O)cc3s2)cc1 [6-(3,4-Dichloro-benzyl)-5,7-dioxo-6,7-dihydro-5H-thiazolo[3,2-c]pyrimidine-2-carboxylic acid 4-methoxy-benzylamide] |
| > 100 | 935 | > 100 |  |  |  | COc1cccc(CNC(=O)c2cccc(C(=O)NCc3cccc(N)c3)c2)c1 |
| > 100 | 2420 | > 100 |  |  |  | COc1ccc(CNC(=O)c2cccc(C(=O)NCc3ccccc3)c2)cc1 [N-Benzyl-N′-(4-methoxy-benzyl)-isophthalamide] |
| > 100 | 9250 | > 100 |  |  |  | COC(=O)COc1ccc(C(=O)OCc2ccccc2)cc1C(=O)OCc1ccccc1 |
| > 100 | 5650 | > 100 |  |  |  | O=C(NCc1cccc(F)c1)c1cccc(C(=O)NCc2cccc(F)c2)c1 [N,N′-Bis-(3-fluoro-benzyl)-isophthalamide] |
| > 100 | 1140 | > 100 |  |  |  | COc1cccc(CNC(=O)c2cccc(C(=O)NCc3ccc([N+](=O)[O-])cc3)c2)c1 |
|  |  |  | > 100 | 72 | 23 | O=C(OCc1ccccc1)C1C[S+]([O-])c2cc(=O)n(Cc3ccccc3)c(=O)n21 (stereo not drawn) |
| > 100 | 1150 | > 100 |  |  |  | COc1cccc(COC(=O)c2cccc(C(=O)OCc3cccc(OC)c3)c2)c1 [Isophthalic acid bis-(3-methoxy-benzyl) ester] |
| > 100 | 415 | 40 |  |  |  | COc1ccc(CNC(=O)c2cccc(C(=O)NCc3cccc(OC)c3)c2)cc1 |
|  |  |  | > 30 | 415 | 43 | O=C(NCc1ccccc1)c1cn2c(=O)n(Cc3ccc(Cl)cc3)c(=O)cc2s1 |
| > 100 | 255 | 64 |  |  |  | COC(=O)c1ccc(CNC(=O)c2cccc(C(=O)NCc3cccc(OC)c3)c2)cc1 |
| > 100 | 503 | > 100 |  |  |  | COc1cccc(CNC(=O)c2cccc(C(=O)NCc3ccc(Cl)cc3)c2)c1 |
| 79 | 5500 | 9.4 |  |  |  | O=C(NCc1ccc(Cl)cc1)c1cccc(C(=O)NCc2ccc(Cl)cc2)c1 [N,N′-Bis-(4-chloro-benzyl)-isophthalamide] |
|  |  |  | > 30 | 71.5 | 19 | COC(=O)c1ccc(Cn2c(=O)c(C)c3sc(C(=O)NCc4cccc(F)c4)cn3c2=O)cc1 |
| > 100 | 7250 | > 100 |  |  |  | COc1ccc(C(=O)NCc2ccc(C)cc2)cc1C(=O)NCc1ccc(C)cc1 [4-Methoxy-N,N′-bis-(4-methyl-benzyl)-isophthalamide] |

The remaining lines, values behind:

| SMILES | IC50 ([1]; Table II) [µM] | IC50 ([2]; MMP13 IC50 (nM), Table II) [nM] | IC50 ([3]; Table II) [µM] | IC50 ([1]; Table 1b) [µM] | IC50 ([2]; MMP13 IC50 (μM), Table 1b) [nM] | IC50 ([3]; Table 1b) [µM] |
| --- | --- | --- | --- | --- | --- | --- |
| Cc1c(=O)n(Cc2ccc(C#N)cc2)c(=O)n2cc(C(=O)NCc3ccc(F)cc3)sc12 |  |  |  | > 100 | 23 | 25 |
| Cc1c(=O)n(Cc2ccccc2)c(=O)n2cc(C(=O)NCc3ccncc3)sc12 [hydrochloride] |  |  |  | > 30 | 48.7 | > 30 |
| Cc1c(=O)n(Cc2ccc3cc(F)ccc3n2)c(=O)n2cc(C(=O)NCc3ccc(F)cc3)sc12 |  |  |  | > 30 | 86 | 18 |
| Cc1c(=O)n(Cc2ccccc2)c(=O)n2cc(C(=O)NCc3ccc(Cl)cc3)sc12 |  |  |  | > 30 | 86.9 | 23 |
| COc1cccc(CNC(=O)c2cn3c(=O)n(Cc4ccccc4)c(=O)c(C)c3s2)c1 |  |  |  | > 30 | 6 | 22 |
| Cc1c(=O)n(Cc2ccc(C#N)cc2)c(=O)n2cc(C(=O)NCc3ccncc3)sc12 [hydrochloride] |  |  |  | > 30 | 54.7 | > 30 |
| COC(=O)Nc1cc(Cn2c(=O)c(C)c3sc(C(=O)NCc4ccc(F)cc4)cn3c2=O)on1 |  |  |  | > 30 | 205 | > 30 |
| COC(=O)c1ccc(Cn2c(=O)c(C)c3sc(C(=O)NCc4ccc(F)cc4)cn3c2=O)cc1 |  |  |  | > 100 | 18 | 17 |
| Cc1c(=O)n(Cc2ccccc2)c(=O)n2cc(C(=O)NCc3ccc(OC(F)(F)F)cc3)sc12 |  |  |  | > 30 | 815 | > 100 |
| Cc1c(=O)n(Cc2ccccc2)c(=O)n2cc(C(=O)NCc3ccc(F)c(F)c3)sc12 |  |  |  | > 100 | 29 | > 30 |
| Cc1c(=O)n(Cc2ccc(C(=O)N3CCOCC3)cc2)c(=O)n2cc(C(=O)NCc3ccc(F)cc3)sc12 |  |  |  | > 30 | 11 | > 30 |
| Cc1c(=O)n(Cc2ccc3oc(=O)ccc3c2)c(=O)n2cc(C(=O)NCc3ccc(F)cc3)sc12 |  |  |  | > 30 | 12 | > 30 |
| Cc1cccc(CNC(=O)c2cn3c(=O)n(Cc4ccccc4)c(=O)c(C)c3s2)c1 |  |  |  | > 100 | 25 | 19 |
| CC#CCn1c(=O)c(C)c2sc(C(=O)NCc3ccc(F)cc3)cn2c1=O |  |  |  | > 100 | 315 | > 30 |
| Cc1c(=O)n(Cc2ccccc2)c(=O)n2cc(C(=O)NCc3ccc(F)cc3)sc12 |  |  |  | > 30 | 24.5 | > 100 |
| O=C(NCc1ccc(Cl)c(Cl)c1)c1cn2c(=O)n(Cc3ccc(Cl)cc3)c(=O)cc2s1 |  |  |  | > 30 | 4300 | > 100 |
| O=C(NCc1ccncc1)C1Cn2c(cc(=O)n(Cc3ccccc3)c2=O)S1 (stereo not drawn) |  |  |  | > 100 | 590 | > 100 |
| Cc1c(=O)n(Cc2ccc(C(=O)OCCN(C)C)cc2)c(=O)n2cc(C(=O)NCc3ccc(F)cc3)sc12 |  |  |  | > 100 | 94 | > 30 |
| Cc1c(=O)n(Cc2ccc(Br)cc2)c(=O)n2cc(C(=O)NCc3ccncc3)sc12 [hydrochloride] |  |  |  | > 30 | 36.5 | > 30 |
| Cc1c(=O)n(Cc2ccc(C(=O)OCCN(C)C)cc2)c(=O)n2cc(C(=O)NCc3ccc(F)cc3)sc12 [hydrochloride] |  |  |  | > 30 | 71 | > 100 |
| Cc1c(=O)n(Cc2ccc(S(N)(=O)=O)cc2)c(=O)n2cc(C(=O)NCc3ccncc3)sc12 [hydrochloride] |  |  |  | > 30 | 46.3 | > 100 |
| Cc1nc(Cn2c(=O)c(C)c3sc(C(=O)NCc4ccc(F)cc4)cn3c2=O)cs1 |  |  |  | > 100 | 770 | > 30 |
| COc1ccc(CNC(=O)c2cn3c(=O)n(Cc4ccccc4)c(=O)c(C)c3s2)cc1 |  |  |  | > 30 | 21.7 | 16 |
| Cc1c(=O)n(Cc2ccc(F)cc2)c(=O)n2cc(C(=O)NCc3ccncc3)sc12 [hydrochloride] |  |  |  | > 30 | 60.5 | > 30 |
| Cc1c(=O)n(Cc2ccc(-c3nn[nH]n3)cc2)c(=O)n2cc(C(=O)NCc3ccc(F)cc3)sc12 |  |  |  | > 100 | 0.9 | 16 |
| CCOc1ccc(C(=O)NCc2ccc3c(c2)OCO3)cc1C(=O)NCc1ccc2c(c1)OCO2 | 51 | 493 | 20 |  |  |  |
| Cc1c(=O)n(Cc2ccc(Cl)cc2)c(=O)n2cc(C(=O)NCc3ccncc3)sc12 |  |  |  | > 30 | 53 | > 30 |
